# Results: patent US9561249B2, “Pharmaceutical formulations of nitrite and uses thereof” (TheraVasc Inc., priority 2013, dated 2017)
# Where two headings read alike, the source gives them in different places.
# Legend:
# subjects with PAD [1] = system: subjects with PAD
# Description: The primary objective of this early stage clinical study was to evaluate the safety and tolerability of multiple doses of twice daily 40 mg and 80 mg sodium nitrite compared with placebo over a 10 week treatment period. […] Finally, the relationship between doses, plasma concentration of sodium nitrite, and pharmacodynamic effects were characterized and evaluated. In this study, multiple assessments of biological activity and ambulatory function were made during standardized tests of arterial reactivity and claudication-limited exercise. The pharmacodynamic assessments included: brachial artery flow-mediated vasodilation (FMD), six-minute walk test, selected biomarkers of interest, quality of life questionnaires (WIQ & RAND 36).
# All doses were given as a twice-daily oral dose for 10 weeks. On the day following the 10 week dosing period and completion of efficacy assessments, subjects in each treatment arm entered a 6 day dose-escalation period (dose-doubling). Subjects in the 40 mg sodium nitrite BID group were dose-escalated to 80 mg sodium nitrite BID for 6 days, and subjects in the 80 mg sodium nitrite BID were dose-escalated to 160 mg sodium nitrite BID for 6-days. Placebo subjects doubled the number of placebo capsules taken BID. All study medication was stopped at the end of the 6-day dose-escalation period.
# (§1) The following safety parameters were assessed: medical and medication history, concomitant medication usage, physical examination, vital signs, 12-lead ECG, clinical chemistries, CBC, urinalysis, and adverse events. Urine pregnancy testing was completed for women of child-bearing potential who have not been surgically sterilized. Assessment of acute adverse events (i.e., drop in blood pressure, dizziness) was performed after administration of 1st dose for each dose level of sodium nitrite. Dose-limiting toxicity (DLT) was defined as Grade 3 and clinically significant hematological events, particularly MetHb.
# As defined by the International Conference on Harmonisation (ICH), an AE was any untoward medical occurrence in a patient or clinical investigation subject administered an investigational product, whether or not the event was considered related to the investigational product. An AE was therefore any unfavorable and unintended sign (including an abnormal laboratory finding), symptom, or disease (new or exacerbated) temporally associated with the use of the investigational product and was collected starting when IP was administered.
# subjects with PAD [2] = settings: even at the 160 mg dose escalation
# Description: as §1
# [3] = Six-Day Dose-Escalation Period Only, 40 mg group (escalated to 80 mg BID)
# [4] = Six-Day Dose-Escalation Period Only, 80 mg group (escalated to 160 mg BID)
structure (smiles),measurement,setting,value
O=NO [sodium nitrite],Number of TEAEs by Relationship to Study Drug: Not Related,subjects with PAD [1]; 40 mg BID,10
same,Number of TEAEs by Relationship to Study Drug: Possibly Related,subjects with PAD [1]; 40 mg BID,22
same,Number of TEAEs by Relationship to Study Drug: Probably Related,subjects with PAD [1]; 40 mg BID,0
same,Number of TEAEs by Severity: Mild,subjects with PAD [1]; 40 mg BID,26
same,Number of TEAEs by Severity: Moderate,subjects with PAD [1]; 40 mg BID,6
same,Number of TEAEs by Relationship to Study Drug: Not Related,subjects with PAD [1]; 80 mg BID,9
same,Number of TEAEs by Relationship to Study Drug: Possibly Related,subjects with PAD [1]; 80 mg BID,24
same,Number of TEAEs by Relationship to Study Drug: Probably Related,subjects with PAD [1]; 80 mg BID,6
same,Number of TEAEs by Severity: Mild,subjects with PAD [1]; 80 mg BID,31
same,Number of TEAEs by Severity: Moderate,subjects with PAD [1]; 80 mg BID,8
same,Number (%) of Subjects with at least one AE,"subjects with PAD [1]; Overall, 40 mg BID",12(63.2%)
same,Number (%) of Subjects with at least one TEAE,"subjects with PAD [1]; Overall, 40 mg BID",12(63.2%)
same,Number of AEs,"subjects with PAD [1]; Overall, 40 mg BID",32
same,Number of SAEs,"subjects with PAD [1]; Overall, 40 mg BID",0
same,Number of TEAEs,"subjects with PAD [1]; Overall, 40 mg BID",32
same,Number (%) of Subjects with at least one AE,"subjects with PAD [1]; Overall, 80 mg BID",14(7738%)
same,Number (%) of Subjects with at least one TEAE,"subjects with PAD [1]; Overall, 80 mg BID",14(7738%)
same,Number of AEs,"subjects with PAD [1]; Overall, 80 mg BID",40
same,Number of SAEs,"subjects with PAD [1]; Overall, 80 mg BID",0
same,Number of TEAEs,"subjects with PAD [1]; Overall, 80 mg BID",39
same,Number (5) of Subjects with at least one TEAE,subjects with PAD [1]; [3],3(15.8%)
same,Number of TEAEs,subjects with PAD [1]; [3],3
same,Number (5) of Subjects with at least one TEAE,subjects with PAD [1]; [4],7(38.9%)
same,Number of TEAEs,subjects with PAD [1]; [4],11
same,Severe adverse effects,subjects with PAD [1]; treated groups overall,no severe adverse effects were observed
same,Methemoglobin levels,subjects with PAD [2],of no concern
